Counter-ions that a name gives are not always drawn. Like-named read-outs stand apart in the source and are kept apart here.
Test system: genetisch hypertonen Ratten
Experiment: Antihypertensive effect (systolic blood pressure, tail cuff) in spontaneously hypertensive rats after oral dosing
Format: in vivo, Ratte
Details: Rattus norvegicus; for change in vivo at 25 µmol/kg: 25 µmol/kg p.o. once daily on four consecutive days; for change in vivo at 5 µmol/kg: 5 µmol/kg p.o. once daily on four consecutive days; for change in vivo at 10 µmol/kg: 10 µmol/kg p.o. once daily on four consecutive days
Text: Die antihypertensive Wirksamkeit der erfindungsgemäßen Verbindungen kann am Modell der spontan hypertonen Ratte nachgewiesen werden.
Zur Bestimmung der antihypertensiven Wirkung werden die unten aufgeführten Verbindungen in den angegebenen Dosen an vier aufeinander folgenden Tagen an je 6 männlichen Ratten (Stamm SHR/N/Ibm/Bm, 250-350 g) mit genetisch bedingtem Hochdruck (systolischer Blutdruck > 180 mmHg) täglich einmal mittels Schlundsonde verabfolgt. Die Messung des Blutdrucks erfolgt jeweils 6 und gegebenenfalls 2 oder 24 Studnen nach Substanzgabe.
Die Blutdruckmessung wird in einer Wärmekammer bei 36°C vorgenommen, um eine bessere Durchblutung der Schwanzarterie zu erreichen. Hierzu werden die Tiere in perforierte Lochblechkäfige verbracht und 20 - 40 Min. nach Beginn der Aufwärmung gemessen. Zur Messung des systolischen arteriellen Drucks wird eine ringförmige Manschette mit aufblasbarer Gummimembran zur Unterbindung der Durchblutung und ein ringförmiger Piezokristallaufnehmer zur Erfassung der Pulswellen auf den Schwanz aufgeschoben. Nach erfolgter Unterbindung des Blutstroms in der Schwanzarterie wird der Manschettendruck kontinuierlich reduziert. Die Wiederkehr der Pulswellen bei Druckablassen wird automatisch als systolischer Blutdruck erkannt und ausgedruckt (Bühler, R. er al." Microprocessor-based automation of blood pressure measurement in the conscious rat. Proceedings of the 4th international symposium on rats with spontaneous hypertension and related studies, Rascher, R. et al. (Eds.), Schattauer Verlag, Stuttgart, New York, 1982, S. 410-413). Pulssignale und Druckverlauf werden zur Auswertung graphisch aufgezeichnet.
Zur Gewöhnung an den Meßvorgang werden die Tiere vor Substanzprüfung 14 Tage trainiert. In der zweiten Trainingswoche werden Blutdruck-Vorwerte erhoben. Tiergruppen, die Substanz erhalten, werden gegen eine Kontrollgruppe geprüft.
In der anschließenden Tabelle werden die untersuchten Verbindungen durch laufende Nummern gekennzeichnet, die mit den jewiligen Beispielnummern übereinstimmen.
Tabelle I gibt für die Vertreter der erfindungsgemäßen Verbindungen die prozentuale Senkung des Blutdrucks (BP) nach oraler Verabreichung bei der Ratte wieder.

[1] = 2h after dosing, mean of days 1+4, male SHR/N/Ibm/Bm rats, N=6, read-out: BP (% Änderung vs. Kontrolle), Mittelwert für Meßzeitpunkte: Stunden nach Gabe (Tage) 2h (1.+4.Tag)
[2] = 6h after dosing, mean of days 1-4, male SHR/N/Ibm/Bm rats, N=6, read-out: BP (% Änderung vs. Kontrolle), Mittelwert für Meßzeitpunkte: Stunden nach Gabe (Tage) 6h (1.-4.Tag)
[3] = 24h after dosing, mean of days 1+3, male SHR/N/Ibm/Bm rats, N=6, read-out: BP (% Änderung vs. Kontrolle), Mittelwert für Meßzeitpunkte: Stunden nach Gabe (Tage) 24h (1.+3.Tag)

SMILES	change in vivo at 25 µmol/kg [1] [%]	change in vivo at 25 µmol/kg [2] [%]	change in vivo at 25 µmol/kg [3] [%]	change in vivo at 10 µmol/kg [1] [%]	change in vivo at 10 µmol/kg [2] [%]	change in vivo at 10 µmol/kg [3] [%]	further results
CC1=C(C(=O)OCCCN2CCC(c3ccccc3)CC2)C(c2cccc([N+](=O)[O-])c2)C(C(=O)O[C@@H]2C[C@H](C)CC[C@H]2C(C)C)=C(C)N1 (single isomer, unassigned) [Beispiel 2b, 1,4-Dihydro-2,6-dimethyl-4-(3-nitrophenyl)-pyridin-3,5-dicarbonsäure-3-(-)-menthyl-5-[3-(4-phenylpiperidyl-1)-propyl]-ester-hydrochlorid]	-36	-33	-16				
COc1ccccc1N1CCN(CCCOC(=O)C2=C(C)NC(C)=C(C(=O)O[C@@H]3C[C@H](C)CC[C@H]3C(C)C)C2c2cccc([N+](=O)[O-])c2)CC1 (single isomer, unassigned) [Beispiel 3b, 1,4-Dihydro-2,6-dimethyl-4-(3-nitrophenyl)-pyridin-3,5-dicarbonsäure-3-(-)-menthyl-5-{3-[4-(2-methoxyphenyl)-1-piperazinyl]-propyl}-ester-fumarat]	-23	-36	-17				
CC1=C(C(=O)OCCN2CCN(c3ccccc3)CC2)C(c2cccc([N+](=O)[O-])c2)C(C(=O)O[C@@H]2C[C@H](C)CC[C@H]2C(C)C)=C(C)N1 (single isomer, unassigned) [Beispiel 4b, 1,4-Dihydro-2,6-dimethyl-4-(3-nitrophenyl)-pyridin-3,5-dicarbonsäure-3-(-)-menthyl-5-[2-(4-phenyl-1-piperazinyl)-ethyl]ester-fumarat]							change in vivo at 5 µmol/kg [1]: -18%; change in vivo at 5 µmol/kg [2]: -16%; change in vivo at 5 µmol/kg [3]: 4%
CC1=C(C(=O)OCCN2CCN(c3ccccn3)CC2)C(c2cccc([N+](=O)[O-])c2)C(C(=O)O[C@@H]2C[C@H](C)CC[C@H]2C(C)C)=C(C)N1 (single isomer, unassigned) [Beispiel 5b, 1,4-Dihydro-2,6-dimethyl-4-(3-nitropheny)-pyridin-3,5-dicarbonsäure-3-(-)-menthyl-5-{2-[4-(2-pyridyl)-1-piperazinyl]-ethyl}-ester-fumarat]				-20	-12	-10	
CC1=C(C(=O)OCCCN(C)Cc2ccccc2)C(c2cccc([N+](=O)[O-])c2)C(C(=O)O[C@@H]2C[C@H](C)CC[C@H]2C(C)C)=C(C)N1 (single isomer, unassigned) [Beispiel 6]	-27	-33	-10				
CC1=C(C(=O)OCCCN2CCC(C(=O)c3ccc(F)cc3)CC2)C(c2cccc([N+](=O)[O-])c2)C(C(=O)O[C@@H]2C[C@H](C)CC[C@H]2C(C)C)=C(C)N1 (single isomer, unassigned) [Beispiel 7, 1,4-Dihydro-2,6-dimethyl-4-(3-nitrophenyl)-pyridin-3,5-dicarbonsäure-3-(-)-menthyl-5-{3-[4-(4-fluorbenzoyl)-piperidyl-1]-propyl}-ester-hydrochlorid]				-12	-11	5	
COc1ccccc1N1CCN(CCOC(=O)C2=C(C)NC(C)=C(C(=O)O[C@@H]3C[C@H](C)CC[C@H]3C(C)C)C2c2cccc([N+](=O)[O-])c2)CC1 (single isomer, unassigned) [Beispiel 9, 1,4-Dihydro-2,6-dimethyl-4-(3-nitrophenyl)-pyridin-3,5-dicarbonsäure-3-(-)-menthyl-5-{2-[4-(2-methoxyphenyl)1-piperazinyl]-ethyl}-ester]				-22	-32	-4	
CC1=C(C(=O)OCCCN2CCN(c3ccccc3)CC2)C(c2cccc([N+](=O)[O-])c2)C(C(=O)O[C@@H]2C[C@H](C)CC[C@H]2C(C)C)=C(C)N1 (single isomer, unassigned) [Beispiel 10, 1,4-Dihydro-2,6-dimethyl-4-(3-nitrophenyl)-pyridin-3,5-dicarbonsäure-3-(-)-menthyl-5-[3-(4-phenyl-1-piperazinyl)-propyl]-ester-fumarat]	-34	-34	-6				
CCOc1ccccc1N1CCN(CCCOC(=O)C2=C(C)NC(C)=C(C(=O)O[C@@H]3C[C@H](C)CC[C@H]3C(C)C)C2c2cccc([N+](=O)[O-])c2)CC1 (single isomer, unassigned) [Beispiel 11, 1,4-Dihydro-2,6-dimethyl-4-(3-nitrophenyl)-pyridin-3,5-dicarbonsäure-3-(-)-menthyl-5-{3-[4-(2-ethoxyphenyl)-1-piperazinyl]-propyl}ester-fumarat]				-21	-26	-10	
CC1=C(C(=O)OCCCN2CCN(c3ccccn3)CC2)C(c2cccc([N+](=O)[O-])c2)C(C(=O)O[C@@H]2C[C@H](C)CC[C@H]2C(C)C)=C(C)N1 (single isomer, unassigned) [Beispiel 12, 1,4-Dihydro-2,6-dimethyl-4-(3-nitrophenyl)-pyridin-3,5-dicarbonsäure-3-(-)-menthyl-5-{3-[4-(2-pyridyl)-1-piperazinyl]-propyl}-ester-fumarat]				-17	-20	-1	
CC1=C(C(=O)OCCCN2CCN(C(c3ccccc3)c3ccccc3)CC2)C(c2cccc([N+](=O)[O-])c2)C(C(=O)O[C@@H]2C[C@H](C)CC[C@H]2C(C)C)=C(C)N1 (single isomer, unassigned) [Beispiel 13, 1,4-Dihydro-2.6-dimethyl-4-(3-nitrophenyl)-pyridin-3,5-dicarbonsäure-3-(-)-menthyl-5-[3-(4-benzhydryl-1-piperazinyl)-propyl]-ester-semifumarat]	-30	-40	-35				
CC1=C(C(=O)OCCCN2CCN(c3cccc(C(F)(F)F)c3)CC2)C(c2cccc([N+](=O)[O-])c2)C(C(=O)O[C@@H]2C[C@H](C)CC[C@H]2C(C)C)=C(C)N1 (single isomer, unassigned) [Beispiel 14, 1,4-Dihydro-2,6-dimethyl-4-(3-nitrophenyl)-pyridin-3,5-dicarbonsäure-3-(-)-menthyl-5-{3-[4-(3-trifluormethylphenyl}-1-piperazinyl]-propyl}-ester-fumarat]	-42	-43	-21				
COc1cccc(N2CCN(CCCOC(=O)C3=C(C)NC(C)=C(C(=O)O[C@@H]4C[C@H](C)CC[C@H]4C(C)C)C3c3cccc([N+](=O)[O-])c3)CC2)c1 (single isomer, unassigned) [Beispiel 15, 1,4-Dihydro-2,6-dimethyl-4-(3-nitrophenyl)-pyridin-3,5-dicarbonsäure-3-(-)-menthyl-5-{3-[4-(3-methoxyphenyl)-1-piperazinyl]-propyl}-ester-fumarat]				-14	-7	-4	
